According to patent US9446039B2, “Aminoheteroaryl compounds as MTH1 inhibitors” (CEMM—FORSCHUNGSZENTRUM FÜR MOLEKULARE MEDIZIN GMBH, priority 2012, dated 2016):

Tests used:
Format in all cases: binding
[1] = target: SW480 colon carcinoma cells lysate proteins (Homo sapiens, UniProt P10412); settings: PreyGene HIST1H1E
[2] = target: T1, SW480 colon carcinoma cells lysate proteins (Homo sapiens, UniProt P14174); settings: PreyGene MIF
T1 sequence (P14174 1-115): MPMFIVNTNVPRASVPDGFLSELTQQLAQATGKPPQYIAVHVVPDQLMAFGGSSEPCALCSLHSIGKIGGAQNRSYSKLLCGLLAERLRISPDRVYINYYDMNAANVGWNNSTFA

[3] = target: T2, SW480 colon carcinoma cells lysate proteins (Homo sapiens, UniProt P40925); settings: PreyGene MDH1
T2 sequence (P40925 1-334): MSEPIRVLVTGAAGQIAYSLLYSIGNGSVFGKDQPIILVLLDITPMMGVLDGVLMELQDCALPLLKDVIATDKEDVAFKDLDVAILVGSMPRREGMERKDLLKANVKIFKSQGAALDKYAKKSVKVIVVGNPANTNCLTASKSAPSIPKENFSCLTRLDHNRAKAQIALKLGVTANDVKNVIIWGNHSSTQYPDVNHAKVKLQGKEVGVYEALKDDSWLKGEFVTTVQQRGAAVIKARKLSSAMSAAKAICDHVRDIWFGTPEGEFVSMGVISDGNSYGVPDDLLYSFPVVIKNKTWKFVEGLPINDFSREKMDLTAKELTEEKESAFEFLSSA

[4] = target: SW480 colon carcinoma cells lysate proteins (Homo sapiens, UniProt P68371); settings: PreyGene TUBB4B; SW480 cells
[5] = target: SW480 colon carcinoma cells lysate proteins (Homo sapiens, UniProt P99999); settings: PreyGene CYCS
[6] = target: SW480 colon carcinoma cells lysate proteins (Homo sapiens, UniProt Q01518); settings: PreyGene CAP1
[7] = target: T3, SW480 colon carcinoma cells lysate proteins (Homo sapiens, UniProt Q14019); settings: PreyGene COTL1
T3 sequence (Q14019 1-142): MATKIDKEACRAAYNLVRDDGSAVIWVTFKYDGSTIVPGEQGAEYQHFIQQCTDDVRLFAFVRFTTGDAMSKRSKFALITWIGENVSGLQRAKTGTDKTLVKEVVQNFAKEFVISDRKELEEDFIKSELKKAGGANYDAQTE

[8] = target: SW480 colon carcinoma cells lysate proteins (Homo sapiens, UniProt Q14152); settings: PreyGene EIF3A; SW480 cells
[9] = target: SW480 colon carcinoma cells lysate proteins (Homo sapiens, UniProt Q14204); settings: PreyGene DYNC1H1
[10] = target: T4, SW480 colon carcinoma cells lysate proteins (Homo sapiens, UniProt Q15102); settings: PreyGene PAFAH1B3; SW480 cells
T4 sequence (Q15102 1-231): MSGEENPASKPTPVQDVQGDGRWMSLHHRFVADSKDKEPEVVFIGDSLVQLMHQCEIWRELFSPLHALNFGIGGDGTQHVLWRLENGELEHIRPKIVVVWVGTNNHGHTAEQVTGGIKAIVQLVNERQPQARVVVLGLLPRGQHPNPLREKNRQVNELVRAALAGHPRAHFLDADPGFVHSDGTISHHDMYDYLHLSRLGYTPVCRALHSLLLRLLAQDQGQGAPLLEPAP

[11] = target: SW480 colon carcinoma cells lysate proteins (Homo sapiens, UniProt Q15365); settings: PreyGene PCBP1; SW480 cells
[12] = target: SW480 colon carcinoma cells lysate proteins (Homo sapiens, UniProt Q562R1); settings: PreyGene ACTBL2; SW480 cells
[13] = target: SW480 colon carcinoma cells lysate proteins (Homo sapiens, UniProt Q92688); settings: PreyGene ANP32B
Chain of SW480 colon carcinoma cells lysate proteins (Homo sapiens, UniProt Q92688) (Q92688 whole entry): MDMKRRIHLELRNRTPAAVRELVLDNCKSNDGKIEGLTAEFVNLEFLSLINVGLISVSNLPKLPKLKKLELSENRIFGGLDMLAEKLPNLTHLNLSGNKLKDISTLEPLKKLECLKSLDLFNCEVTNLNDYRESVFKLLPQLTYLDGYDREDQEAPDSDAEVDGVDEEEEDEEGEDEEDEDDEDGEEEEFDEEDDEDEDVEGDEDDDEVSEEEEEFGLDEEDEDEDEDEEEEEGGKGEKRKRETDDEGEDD

Chain of SW480 colon carcinoma cells lysate proteins (Homo sapiens, UniProt Q562R1) (Q562R1 whole entry): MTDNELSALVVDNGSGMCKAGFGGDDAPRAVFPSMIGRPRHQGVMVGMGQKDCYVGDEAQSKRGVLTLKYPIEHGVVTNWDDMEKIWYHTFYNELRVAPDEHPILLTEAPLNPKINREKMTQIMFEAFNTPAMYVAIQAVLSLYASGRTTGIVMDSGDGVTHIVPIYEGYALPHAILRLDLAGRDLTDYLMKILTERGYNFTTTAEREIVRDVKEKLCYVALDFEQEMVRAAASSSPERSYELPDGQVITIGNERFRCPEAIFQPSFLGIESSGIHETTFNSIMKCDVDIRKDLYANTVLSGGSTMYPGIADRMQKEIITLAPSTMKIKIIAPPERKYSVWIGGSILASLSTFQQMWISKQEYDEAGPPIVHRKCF
Chain of SW480 colon carcinoma cells lysate proteins (Homo sapiens, UniProt P10412) (P10412 whole entry): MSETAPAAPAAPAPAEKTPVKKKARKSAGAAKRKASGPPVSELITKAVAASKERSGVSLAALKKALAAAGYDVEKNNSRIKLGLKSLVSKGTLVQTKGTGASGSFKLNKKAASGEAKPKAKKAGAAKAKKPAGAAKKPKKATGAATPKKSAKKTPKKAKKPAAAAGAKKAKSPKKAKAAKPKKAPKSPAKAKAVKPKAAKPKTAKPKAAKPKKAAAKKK
Chain of SW480 colon carcinoma cells lysate proteins (Homo sapiens, UniProt Q01518) (Q01518 whole entry): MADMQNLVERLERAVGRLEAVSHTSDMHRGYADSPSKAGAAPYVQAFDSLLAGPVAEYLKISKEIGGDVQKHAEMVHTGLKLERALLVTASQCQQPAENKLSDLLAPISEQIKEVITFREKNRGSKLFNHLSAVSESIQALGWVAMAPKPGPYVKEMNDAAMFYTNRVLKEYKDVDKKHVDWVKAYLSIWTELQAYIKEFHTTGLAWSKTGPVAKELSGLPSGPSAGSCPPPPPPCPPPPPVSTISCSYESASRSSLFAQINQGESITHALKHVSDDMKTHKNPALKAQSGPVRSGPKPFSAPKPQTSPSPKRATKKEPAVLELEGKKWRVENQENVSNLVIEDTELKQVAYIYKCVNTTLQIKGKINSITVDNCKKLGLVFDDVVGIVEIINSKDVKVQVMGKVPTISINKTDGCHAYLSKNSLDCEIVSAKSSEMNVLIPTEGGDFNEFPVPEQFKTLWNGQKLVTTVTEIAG
Chain of SW480 colon carcinoma cells lysate proteins (Homo sapiens, UniProt Q15365) (Q15365 whole entry): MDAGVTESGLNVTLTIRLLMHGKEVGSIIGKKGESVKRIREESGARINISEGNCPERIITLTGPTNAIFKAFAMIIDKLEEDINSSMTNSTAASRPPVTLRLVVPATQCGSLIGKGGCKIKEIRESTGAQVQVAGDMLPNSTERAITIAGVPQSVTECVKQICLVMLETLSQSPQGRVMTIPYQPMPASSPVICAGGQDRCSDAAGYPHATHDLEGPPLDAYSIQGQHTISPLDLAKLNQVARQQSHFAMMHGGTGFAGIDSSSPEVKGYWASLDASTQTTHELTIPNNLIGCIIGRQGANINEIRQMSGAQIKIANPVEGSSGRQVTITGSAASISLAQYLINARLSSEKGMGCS
Chain of SW480 colon carcinoma cells lysate proteins (Homo sapiens, UniProt P99999) (P99999 whole entry): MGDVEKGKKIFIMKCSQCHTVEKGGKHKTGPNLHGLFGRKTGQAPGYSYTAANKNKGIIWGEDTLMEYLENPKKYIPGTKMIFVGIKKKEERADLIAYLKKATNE
Chain of SW480 colon carcinoma cells lysate proteins (Homo sapiens, UniProt P68371) (P68371 whole entry): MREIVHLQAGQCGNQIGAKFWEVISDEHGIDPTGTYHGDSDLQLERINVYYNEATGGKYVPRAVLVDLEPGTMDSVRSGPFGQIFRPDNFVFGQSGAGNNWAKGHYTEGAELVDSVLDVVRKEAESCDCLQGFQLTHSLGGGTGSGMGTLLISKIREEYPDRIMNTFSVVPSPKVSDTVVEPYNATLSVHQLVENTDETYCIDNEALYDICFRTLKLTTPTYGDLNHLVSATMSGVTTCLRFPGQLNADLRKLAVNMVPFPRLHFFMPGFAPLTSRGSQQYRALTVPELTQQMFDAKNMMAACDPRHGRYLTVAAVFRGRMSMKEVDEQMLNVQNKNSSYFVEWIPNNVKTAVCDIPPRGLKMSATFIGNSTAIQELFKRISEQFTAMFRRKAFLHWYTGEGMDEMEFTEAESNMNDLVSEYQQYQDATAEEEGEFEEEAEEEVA
Chain of SW480 colon carcinoma cells lysate proteins (Homo sapiens, UniProt Q14152) (Q14152 whole entry): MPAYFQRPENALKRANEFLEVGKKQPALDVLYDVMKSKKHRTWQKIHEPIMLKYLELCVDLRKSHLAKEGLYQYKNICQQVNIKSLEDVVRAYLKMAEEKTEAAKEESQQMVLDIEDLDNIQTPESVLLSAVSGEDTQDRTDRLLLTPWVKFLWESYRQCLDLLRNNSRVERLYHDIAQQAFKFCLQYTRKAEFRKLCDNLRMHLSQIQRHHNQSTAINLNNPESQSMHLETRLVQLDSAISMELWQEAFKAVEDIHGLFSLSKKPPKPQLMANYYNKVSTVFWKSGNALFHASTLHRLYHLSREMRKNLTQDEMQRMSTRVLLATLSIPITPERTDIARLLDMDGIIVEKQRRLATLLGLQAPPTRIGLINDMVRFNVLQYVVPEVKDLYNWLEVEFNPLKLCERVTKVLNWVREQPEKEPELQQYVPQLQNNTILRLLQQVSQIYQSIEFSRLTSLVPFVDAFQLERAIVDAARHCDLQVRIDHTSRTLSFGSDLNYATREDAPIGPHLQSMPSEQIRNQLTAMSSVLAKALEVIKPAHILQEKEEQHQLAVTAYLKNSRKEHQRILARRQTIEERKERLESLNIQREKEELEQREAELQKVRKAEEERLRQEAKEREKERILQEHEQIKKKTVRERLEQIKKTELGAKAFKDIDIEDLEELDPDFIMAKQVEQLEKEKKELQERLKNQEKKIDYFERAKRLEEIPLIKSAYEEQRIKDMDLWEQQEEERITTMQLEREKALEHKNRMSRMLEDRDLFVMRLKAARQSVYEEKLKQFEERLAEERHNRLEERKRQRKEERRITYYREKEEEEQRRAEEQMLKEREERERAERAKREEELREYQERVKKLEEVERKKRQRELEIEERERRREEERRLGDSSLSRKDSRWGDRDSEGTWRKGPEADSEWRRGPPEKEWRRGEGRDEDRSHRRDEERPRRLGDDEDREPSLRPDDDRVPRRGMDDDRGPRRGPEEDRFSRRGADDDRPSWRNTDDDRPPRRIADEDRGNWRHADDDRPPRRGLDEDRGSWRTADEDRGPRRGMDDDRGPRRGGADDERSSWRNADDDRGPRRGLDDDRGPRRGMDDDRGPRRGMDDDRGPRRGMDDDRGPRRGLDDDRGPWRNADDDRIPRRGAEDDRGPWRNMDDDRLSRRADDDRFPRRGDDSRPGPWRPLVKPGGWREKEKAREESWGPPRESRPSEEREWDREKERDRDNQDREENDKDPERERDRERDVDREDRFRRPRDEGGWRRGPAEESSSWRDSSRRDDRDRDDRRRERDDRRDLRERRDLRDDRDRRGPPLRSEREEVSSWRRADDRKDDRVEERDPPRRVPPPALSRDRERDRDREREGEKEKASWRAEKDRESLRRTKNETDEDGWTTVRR

For `C[C@H](Oc1cc(-c2cnn(C3CCNCC3)c2)cnc1N)c1c(Cl)ccc(F)c1Cl` [(5)-crizotinib], the AvgP [1] was 0.2298, the “SC.Exp. 1-1” value [1] was 0 and the “SC.Exp. 1-2” value [1] was 2. For the same molecule, the “SC.Exp. 2-1” value [1] was 0, the “SC.Exp. 2-2” value [1] was 2 and the “Sum (SC.Exp.)” value [1] was 4. For the same molecule, the AvgP [2] was 0.3362, the “SC.Exp. 1-1” value [2] was 0 and the “SC.Exp. 1-2” value [2] was 1. For the same molecule, the “SC.Exp. 2-1” value [2] was 2, the “SC.Exp. 2-2” value [2] was 2 and the “Sum (SC.Exp.)” value [2] was 5. The AvgP [3] was 0.4615, the “SC.Exp. 1-1” value [3] was 5 and the “SC.Exp. 1-2” value [3] was 6. For the same molecule, the “SC.Exp. 2-1” value [3] was 0, the “SC.Exp. 2-2” value [3] was 0 and the “Sum (SC.Exp.)” value [3] was 11. For the same molecule, the AvgP [4] was 0, the “SC.Exp. 1-1” value [4] was 8 and the “SC.Exp. 1-2” value [4] was 8. For the same molecule, the “SC.Exp. 2-1” value [4] was 2, the “SC.Exp. 2-2” value [4] was 4 and the “SC.Exp. Sum” value [4] was 22. The AvgP [5] was 0.391, the “SC.Exp. 1-1” value [5] was 2 and the “SC.Exp. 1-2” value [5] was 3. The “SC.Exp. 2-1” value [5] was 0, the “SC.Exp. 2-2” value [5] was 0 and the “Sum (SC.Exp.)” value [5] was 5. For the same molecule, the AvgP [6] was 0.3081, the “SC.Exp. 1-1” value [6] was 3 and the “SC.Exp. 1-2” value [6] was 2. For the same molecule, the “SC.Exp. 2-1” value [6] was 0, the “SC.Exp. 2-2” value [6] was 0 and the “Sum (SC.Exp.)” value [6] was 5. For the same molecule, the AvgP [7] was 0.4372, the “SC.Exp. 1-1” value [7] was 5 and the “SC.Exp. 1-2” value [7] was 4. For the same molecule, the “SC.Exp. 2-1” value [7] was 0, the “SC.Exp. 2-2” value [7] was 0 and the “Sum (SC.Exp.)” value [7] was 9. For the same molecule, the AvgP [8] was 0, the “SC.Exp. 1-1” value [8] was 9 and the “SC.Exp. 1-2” value [8] was 7. For the same molecule, the “SC.Exp. 2-1” value [8] was 7, the “SC.Exp. 2-2” value [8] was 6 and the “SC.Exp. Sum” value [8] was 29. The AvgP [9] was 0.2458, the “SC.Exp. 1-1” value [9] was 13 and the “SC.Exp. 1-2” value [9] was 13. The “SC.Exp. 2-1” value [9] was 2, the “SC.Exp. 2-2” value [9] was 2 and the “Sum (SC.Exp.)” value [9] was 30. For the same molecule, the AvgP [10] was 0, the “SC.Exp. 1-1” value [10] was 1 and the “SC.Exp. 1-2” value [10] was 1. For the same molecule, the “SC.Exp. 2-1” value [10] was 0, the “SC.Exp. 2-2” value [10] was 0 and the “SC.Exp. Sum” value [10] was 2. For the same molecule, the AvgP [11] was 0, the “SC.Exp. 1-1” value [11] was 0 and the “SC.Exp. 1-2” value [11] was 1. For the same molecule, the “SC.Exp. 2-1” value [11] was 0, the “SC.Exp. 2-2” value [11] was 0 and the “SC.Exp. Sum” value [11] was 1. The AvgP [12] was 0, the “SC.Exp. 1-1” value [12] was 1 and the “SC.Exp. 1-2” value [12] was 1. For the same molecule, the “SC.Exp. 2-1” value [12] was 0, the “SC.Exp. 2-2” value [12] was 0 and the “SC.Exp. Sum” value [12] was 2. The AvgP [13] was 0.5116, the “SC.Exp. 1-1” value [13] was 0 and the “SC.Exp. 1-2” value [13] was 1. The “SC.Exp. 2-1” value [13] was 4, the “SC.Exp. 2-2” value [13] was 4 and the “Sum (SC.Exp.)” value [13] was 9.
